System: diarrhea-predominant IBS subjects
Experiment: 3007 Study: open-label 52-week safety study, adverse events and withdrawals
[1] = Overall, N=536, % of appropriate gender

For `Cc1nccn1C[C@H]1CCc2c(c3cccc4c3n2CCC4)C1=O` [cilansetron, (R)-(−)-4,5,6,8,9,10-hexahydro-10-[(2-methyl-1H-imidazol-1-yl)methyl]-11H-pyrido-[3,2,1-jk]-carbazol-11-one], the “TEAE leading to permanent discontinuation: Dyspepsia” value (Overall, N=536) was 2 (<1%) n (%), the “TEAE leading to permanent discontinuation: Ear and Labyrinth Disorders” value (Overall, N=536) was 1 (<1%) n (%) and the “TEAE leading to permanent discontinuation: Epigastric Discomfort” value (Overall, N=536) was 1 (<1%) n (%). For the same compound, the “TEAE leading to permanent discontinuation: Eructation” value (Overall, N=536) was 1 (<1%) n (%), the “TEAE leading to permanent discontinuation: Eye Disorders” value (Overall, N=536) was 1 (<1%) n (%) and the “TEAE leading to permanent discontinuation: Faecal Abnormality NOS” value (Overall, N=536) was 1 (<1%) n (%). For the same compound, the “TEAE leading to permanent discontinuation: Faecal Impaction” value (Overall, N=536) was 1 (<1%) n (%), the “TEAE leading to permanent discontinuation: Faecal Incontinence” value (Overall, N=536) was 1 (<1%) n (%) and the “TEAE leading to permanent discontinuation: Faeces Hard” value (Overall, N=536) was 1 (<1%) n (%). For the same compound, the “TEAE leading to permanent discontinuation: Fatigue” value (Overall, N=536) was 4 (<1%) n (%), the “TEAE leading to permanent discontinuation: Fibroma NOS” value (Overall, N=536) was 1 (<1%) n (%) and the “TEAE leading to permanent discontinuation: Flatulence” value (Overall, N=536) was 7 (1%) n (%). For the same compound, the “TEAE leading to permanent discontinuation: Gastric Irritation” value (Overall, N=536) was 1 (<1%) n (%), the “TEAE leading to permanent discontinuation: Gastrointestinal Disorders” value (Overall, N=536) was 64 (12%) n (%) and the “TEAE leading to permanent discontinuation: Gastrointestinal Motility Disorder NOS” value (Overall, N=536) was 1 (<1%) n (%). The “TEAE leading to permanent discontinuation: General Disorders and Administration Site Conditions” value (Overall, N=536) was 7 (1%) n (%), the “TEAE leading to permanent discontinuation: Haemorrhoidal Haemorrhage” value (Overall, N=536) was 1 (<1%) n (%) and the “TEAE leading to permanent discontinuation: Hallucination NOS” value (Overall, N=536) was 1 (<1%) n (%). For the same compound, the “TEAE leading to permanent discontinuation: Hallucination, Auditory” value (Overall, N=536) was 1 (<1%) n (%), the “TEAE leading to permanent discontinuation: Headache NOS” value (Overall, N=536) was 4 (<1%) n (%) and the “TEAE leading to permanent discontinuation: Headache NOS Aggravated” value (Overall, N=536) was 1 (<1%) n (%). For the same compound, the “TEAE leading to permanent discontinuation: Heart Rate Increased” value (Overall, N=536) was 1 (<1%) n (%), the “TEAE leading to permanent discontinuation: Hepatobiliary Disorders” value (Overall, N=536) was 1 (<1%) n (%) and the “TEAE leading to permanent discontinuation: Hepatosplenomegaly NOS” value (Overall, N=536) was 1 (<1%) n (%). The “TEAE leading to permanent discontinuation: Hiatus Hernia” value (Overall, N=536) was 1 (<1%) n (%), the “TEAE leading to permanent discontinuation: Investigations” value (Overall, N=536) was 5 (<1%) n (%) and the “TEAE leading to permanent discontinuation: Irritable Bowel Syndrome Aggravated” value (Overall, N=536) was 1 (<1%) n (%). For the same compound, the “TEAE leading to permanent discontinuation: Lethargy” value (Overall, N=536) was 1 (<1%) n (%), the “TEAE leading to permanent discontinuation: Metabolism and Nutrition Disorders” value (Overall, N=536) was 1 (<1%) n (%) and the “TEAE leading to permanent discontinuation: Migraine NOS” value (Overall, N=536) was 1 (<1%) n (%). For the same compound, the “TEAE leading to permanent discontinuation: Muscle Cramps” value (Overall, N=536) was 2 (<1%) n (%), the “TEAE leading to permanent discontinuation: Musculoskeletal and Connective Tissue Disorders” value (Overall, N=536) was 7 (1%) n (%) and the “TEAE leading to permanent discontinuation: Nausea” value (Overall, N=536) was 3 (<1%) n (%). For the same compound, the “TEAE leading to permanent discontinuation: Neoplasms Benign, Malignant and Unspecified (Incl Cysts and Polyps)” value (Overall, N=536) was 5 (<1%) n (%), the “TEAE leading to permanent discontinuation: Nervous System Disorders” value (Overall, N=536) was 8 (1%) n (%) and the “TEAE leading to permanent discontinuation: Pregnancy, Puerperium and Perinatal Conditions” value (Overall, N=536) was 1 (<1%) n (%). For the same compound, the “TEAE leading to permanent discontinuation: Pruritus NOS” value (Overall, N=536) was 1 (<1%) n (%), the “TEAE leading to permanent discontinuation: Psychiatric Disorders” value (Overall, N=536) was 1 (<1%) n (%) and the “TEAE leading to permanent discontinuation: Psychotic Disorder NOS” value (Overall, N=536) was 1 (<1%) n (%). The “TEAE leading to permanent discontinuation: Rash Macular” value (Overall, N=536) was 1 (<1%) n (%), the “TEAE leading to permanent discontinuation: Rash NOS” value (Overall, N=536) was 1 (<1%) n (%) and the “TEAE leading to permanent discontinuation: Rectal Disorder NOS” value (Overall, N=536) was 1 (<1%) n (%). For the same compound, the “TEAE leading to permanent discontinuation: Rectal Haemorrhage” value (Overall, N=536) was 4 (<1%) n (%), the “TEAE leading to permanent discontinuation: Rectal Tenesmus” value (Overall, N=536) was 1 (<1%) n (%) and the “TEAE leading to permanent discontinuation: Renal and Urinary Disorders” value (Overall, N=536) was 1 (<1%) n (%). For the same compound, the “TEAE leading to permanent discontinuation: Respiratory, Thoracic and Mediastinal Disorders” value (Overall, N=536) was 3 (<1%) n (%), the “TEAE leading to permanent discontinuation: Skin and Subcutaneous Tissue Disorders” value (Overall, N=536) was 4 (<1%) n (%) and the “TEAE leading to permanent discontinuation: Somnolence” value (Overall, N=536) was 1 (<1%) n (%). The “TEAE leading to permanent discontinuation: Stomach Discomfort” value (Overall, N=536) was 1 (<1%) n (%), the “TEAE leading to permanent discontinuation: Suicidal Ideation” value (Overall, N=536) was 1 (<1%) n (%) and the “TEAE leading to permanent discontinuation: Urticaria NOS” value (Overall, N=536) was 1 (<1%) n (%). For the same compound, the “TEAE leading to permanent discontinuation: Vertigo” value (Overall, N=536) was 1 (<1%) n (%), the “TEAE leading to permanent discontinuation: Visual Acuity Reduced” value (Overall, N=536) was 1 (<1%) n (%) and the “TEAE leading to permanent discontinuation: Vomiting NOS” value (Overall, N=536) was 1 (<1%) n (%). For the same compound, the “TEAE leading to permanent discontinuation: White Blood Cells Urine Positive” value (Overall, N=536) was 1 (<1%) n (%), the “Total Number of Subjects with at Least One TEAE Leading to Discontinuation of Study Medication” value (Overall, N=536) was 83 (15%) n (%) and the “TEAE leading to permanent discontinuation: Benign Ovarian Tumour*” value [1] was 1 (<1%) n (%). For the same compound, the “TEAE leading to permanent discontinuation: Breast Cancer NOS*” value [1] was 2 (<1%) n (%), the “TEAE leading to permanent discontinuation: Ovarian Cancer NOS*” value [1] was 1 (<1%) n (%) and the “TEAE leading to permanent discontinuation: Ovarian Cystadenofibroma*” value [1] was 1 (<1%) n (%). The “TEAE leading to permanent discontinuation: Pregnancy NOS*” value [1] was 1 (<1%) n (%), the “TEAE: Female Reproductive Tract Infections*” value (Overall, gender-specific) was 2 (<1%) n (%) and the “TEAE: Prostate Examination Abnormal*” value (Overall, gender-specific) was 1 (<1%) n (%). The “TEAE: Smear Cervix Abnormal*” value (Overall, gender-specific) was 1 (<1%) n (%), the “TEAE: Vaginal Candidiasis*” value (Overall, gender-specific) was 2 (<1%) n (%) and the “TEAE: Vaginitis Bacterial NOS*” value (Overall, gender-specific) was 1 (<1%) n (%). For the same compound, the “TEAE: Vaginitis*” value (Overall, gender-specific) was 1 (<1%) n (%), the “TEAE: Vaginosis Fungal NOS*” value (Overall, gender-specific) was 2 (<1%) n (%) and the “TEAE: Abdominal Therapeutic Procedures NEC” value (P/C group) was 1 (<1%) n (%). The “TEAE: Abdominoplasty” value (P/C group) was 1 (<1%) n (%), the “TEAE: Abnormal Chest Sounds NOS” value (P/C group) was 1 (<1%) n (%) and the “TEAE: Acne NOS” value (P/C group) was 0 n (%). The “TEAE: Acnes” value (P/C group) was 0 n (%), the “TEAE: Acquired Hypothyroidism” value (P/C group) was 1 (<1%) n (%) and the “TEAE: Acrochordons” value (P/C group) was 1 (<1%) n (%). The “TEAE: Adenomyosis*” value (P/C group) was 0 n (%), the “TEAE: Age Related Issues” value (P/C group) was 1 (<1%) n (%) and the “TEAE: Allergic Conditions NEC” value (P/C group) was 2 (<1%) n (%). The “TEAE: Allergies to Foods, Food Additives, Drugs and Other Chemicals” value (P/C group) was 1 (<1%) n (%), the “TEAE: Allergy to Insect Sting” value (P/C group) was 1 (<1%) n (%) and the “TEAE: Alopecia” value (P/C group) was 1 (<1%) n (%). The “TEAE: Alopecias” value (P/C group) was 1 (<1%) n (%), the “TEAE: Amenorrhoea NOS*” value (P/C group) was 0 n (%) and the “TEAE: Anaemia NOS” value (P/C group) was 1 (<1%) n (%).

— patent US20070093520A1, “Method of treatment of diarrhea-predominant irritable bowel syndrome in a subject” (priority 2005, published 2007)
